Measured values as given in paper PMC9645260, “Small-molecule inhibitors of P-Rex guanine-nucleotide exchange factors” (Small GTPases, 2022).

Tests used:
ITSN1 (DHPH) = target: T1, ITSN1 (DHPH) (Homo sapiens, UniProt Q15811); experiment: Liposome-based GEF activity assay, ITSN1; format: biochemical; settings: 10 µM, 100 nM ITSN1 DHPH
T1 construct: The ITSN1 DHPH domains and Ect2 DHPH domains, produced in and purified from bacteria; host or cells: bacteria
T1 sequence (Q15811 1229-1580 limits assumed): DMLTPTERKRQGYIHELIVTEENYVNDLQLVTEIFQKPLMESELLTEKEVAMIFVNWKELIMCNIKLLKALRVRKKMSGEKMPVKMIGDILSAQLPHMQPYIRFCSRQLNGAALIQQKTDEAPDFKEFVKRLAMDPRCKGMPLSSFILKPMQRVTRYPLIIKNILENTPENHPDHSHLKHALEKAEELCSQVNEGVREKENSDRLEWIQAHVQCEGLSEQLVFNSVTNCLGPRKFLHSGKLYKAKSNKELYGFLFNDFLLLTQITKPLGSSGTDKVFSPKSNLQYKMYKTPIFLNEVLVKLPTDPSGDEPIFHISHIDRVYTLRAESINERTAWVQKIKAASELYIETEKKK
Procedure: Full-length N-terminally EE-tagged P-Rex1, P-Rex2, the P-Rex1 DH and DHPH domains and the P-Rex2 DH domain were produced in Sf9 cells using baculoviral transduction and were purified using anti-EE beads, as previously described. Briefly, frozen pellets from 500 ml of Sf9 culture infected with P-Rex expressing high-titre baculovirus were resuspended in ice-cold lysis Sf9-cell lysis buffer 2 (1x PBS, 1% Triton X-100, 5 mM EGTA, 1 mM EDTA, 25 mM NaF, 20 mM β-glycerophosphate, 1 mM DTT, 100 µM PMSF, 10 μg/ml each of leupeptin, pepstatin A, aprotinin and antipain) for 5 min and then ultracentrifuged at 118,000 × g for 1 h at 4°C. Supernatants were incubated with pre-washed anti-EE beads for 90 min on ice with end-over-end rotation. […] Protein concentration and purity were determined by coomassie staining of SDS-PAGE gels. […]
Liposome-based GEF activity assays were carried out essentially as described, except that GEFs were incubated with inhibitor compounds prior to the assay. […] Small GTPases were isolated using anti-EE antibody-coupled Sepharose beads or glutathione Sepharose beads, as appropriate, by incubation on ice for 90 min with end-over-end rotation, four washes in ice-cold wash buffer and resuspension of beads in Ultima Gold scintillation fluid (Perkin Elmer). ^35S-GTPγS incorporation was assessed by scintillation counting (Packard 1600TR, Liquid Scintillation Analyser).

P-Rex1 DHPH domain = target: T2, P-Rex1 DHPH domain (Homo sapiens, UniProt Q8TCU6); experiment: Mant-GTP GEF activity assay; format: biochemical
T2 construct: 100 nM EE-P-Rex1 DHPH domains (PREX-in1, compounds 2–10 and 30–128); made in house; host or cells: Sf9 cells (baculovirus)
T2 sequence (Q8TCU6 49-392 limits assumed): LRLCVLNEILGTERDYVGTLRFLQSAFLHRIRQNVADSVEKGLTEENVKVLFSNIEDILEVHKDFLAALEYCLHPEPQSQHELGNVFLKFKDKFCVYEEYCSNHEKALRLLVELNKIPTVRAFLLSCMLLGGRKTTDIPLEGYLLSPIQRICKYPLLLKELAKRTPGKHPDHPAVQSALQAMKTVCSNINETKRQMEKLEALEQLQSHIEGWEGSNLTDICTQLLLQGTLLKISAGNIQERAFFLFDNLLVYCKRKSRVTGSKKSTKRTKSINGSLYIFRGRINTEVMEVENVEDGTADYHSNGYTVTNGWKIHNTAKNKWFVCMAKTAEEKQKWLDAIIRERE
Procedure: The mant-GTP GEF activity assay measures the binding of fluorescent 2’/3’-O-(N-Methyl-anthraniloyl)-guanosine-5’-triphosphate (mant)-GTP to Rac, making use of the spectroscopic differences between bound and free mant-GTP. P-Rex1 DHPH domain protein was diluted to 375 nM in exchange buffer (20 mM Tris, pH 7.5 RT, 50 mM NaCl, 200 mM KCl, 4 mM MgCl2, 50 μg/ml fatty-acid-free BSA). The inhibitors PREX-in1 or EHop-016 were diluted to various concentrations in exchange buffer containing 15% DMSO. 4.4 µl P-Rex1 DHPH domain protein were incubated with 1.1 µl PREX-in1 or EHop-016 for 30 min at 30°C, or were mock treated with 1.1 µl vehicle (15% DMSO). 5 μl of the P-Rex1 DHPH / inhibitor mix was then added to 10 µl of a 1.5x reaction mix containing 225 nM bacteria-derived EE-Rac1, 7.5 µM mant-GTP and 15 µM GTP in exchange buffer in a 96-well plate. Final assay concentrations were 150 nM EE-Rac1, 100 nM P-Rex1 DHPH domain, 5 μM mant-GTP, 10 µM GTP, […] fatty-acid-free BSA, 1% DMSO, and the indicated concentrations of inhibitor. Mant-GTP fluorescence was measured in real time in a PHERAstar 384-well fluorescence plate reader at 25°C for 40 min using 360 nm excitation and 440 nm emission.

Question: Which results are given for COc1ccc(-c2[nH]nc3c2C(c2ccc(-c4ccc(Cl)cc4)o2)C(C#N)=C(N)O3)cc1 (stereo not drawn) [PREX-in1, 6-amino-4-[5-(4-chlorophenyl)-2-furyl]-3-(4-methoxyphenyl)-2,4-dihydropyrano[2,3-c]pyrazole-5-carbonitrile]?
Answer: effect on GEF activity of ITSN1 (ITSN1 (DHPH)): none of the other GEFs were affected; IC50 (P-Rex1 DHPH domain; 150 nM EE-Rac1, 100 nM P-Rex1 DHPH, read-out: IC50 of inhibition of P-Rex1 DHPH in mant-GTP assay): ~10 µM; effect on P-Rex1 DHPH-dependent mant-GTP loading of Rac1 (P-Rex1 DHPH domain; 10 µM): inhibited
